Source: patent US11535851B2, “Reagents for treatment of hepatitis B virus (HBV) infection and use thereof” (priority 2016, dated 2022)

Key:
Type in all cases: in vivo
HBV genotype C [1] = assay: Serum HBV DNA in HBV-infected PXB chimeric mouse model; details: treatment arm of daily ETV only; FIG. 7
Procedure: (§1) The in vivo effect of the anti-HBV shmiR or shRNA-expressing AAV particles (as illustrated in FIG. 5) was determined in a PXB chimeric mouse model infected de novo with HBV inoculum. Inhibition of various HBV parameters was assessed: (i) expression of HBV viral transcripts, (ii) extracellular HbsAg, HBcAg and HBeAg, (iii) extracellular and intracellular HBV DNA, and (iv) formation of cccDNA.
(§2) Chimeric PXB mice (PXB-mice®) were obtained from PhoenixBio. All mice were housed individually at 23±5° C. and a humidity of 55±25% humidity, exposed to 12 hours-light/dark cycles and fed and watered ad libitum throughout the experiment. […] To determine baseline HBV infection, blood was taken from mice at days −28, −21, −14 and −7 (i.e., 0, 7, 14 and 21 days post inoculation, respectively), from which human albumin (h-Alb) concentration and serum concentrations of HBV DNA, HBsAg and HBeAg were determined. These permit detection of liver damage in test animals—no adverse reactions were detected.
Remaining whole blood was centrifuged to separate serum for HBV DNA quantification, HbsAg, HBcAg and HBeAg analysis. […] Synthetic HBV DNA was used to determine the concentration of the HBV DNA standard which was then used in quantification of the serum HBV DNA level. […]

HBV viral transcripts = assay: Liver HBV RNA levels by RT-QPCR in PXB chimeric mouse model; details: FIG. 11
Excerpt: After the completion of blood sampling on Day 91, all the surviving animals were kept under isoflurane anesthesia and sacrificed by cardiac puncture and exsanguination. Once sacrificed, whole livers were harvested from mice and weighed. A slice of liver of 3 to 5 mm in thickness was obtained from left lateral lobe and cut into cubes approximately 1 to 2 mm on a side. These liver cubes were transferred into a labelled tube and immersed in RNAlater® solution (Ambion, Thermo Fisher Scientific Inc., Waltham, Mass., USA) as quickly as possible. The liver samples were incubated in ≥5 volumes of RNAlater® overnight at 4° C. to allow the solution to penetrate the tissue. After the incubation, the RNAlater® solution was removed and the liver pieces were stored at −80° C. for subsequent quantification of the various hepatic HBV DNA and RNAs as well as expression levels of recombinant AAV derived shRNA or shmiR RNAs.
Using primer/probe sets that are located near each of the RNAi-induced cleavage sites, the levels of HBV RNA was assessed by RT-QPCR (FIG. 11).

HBV cccDNA = assay: Liver HBV cccDNA by real-time PCR in PXB chimeric mouse model; details: ETV; FIG. 12, right panel
Procedure: HBV-infected mice treated with saline served as the negative controls. […] For the anti-HBV ddRNAi treatment groups, ssAAV8-HBV-shRNAx3-v1, scAAV8-HBV-shRNAx3-v1 or ssAAV8-HBV-shmiRx3-v1 was administered once at a dose of 2×10E+13 vg/kg by a low pressure tail vein injection at Day 0. Co-treated animals started daily ETV at Day 1 or were dosed the first time with PEG-IFN on Day 4
After the completion of blood sampling on Day 91, all the surviving animals were kept under isoflurane anesthesia and sacrificed by cardiac puncture and exsanguination. Once sacrificed, whole livers were harvested from mice and weighed. A slice of liver of 3 to 5 mm in thickness was obtained from left lateral lobe and cut into cubes approximately 1 to 2 mm on a side. […] After the incubation, the RNAlater® solution was removed and the liver pieces were stored at −80° C. for subsequent quantification of the various hepatic HBV DNA and RNAs as well as expression levels of recombinant AAV derived shRNA or shmiR RNAs.
To determine the level of hepatic HBV DNA following treatment, HBV DNA was extracted from frozen RNAlater®-preserved liver tissue using the DNeasy® Blood & Tissue Kits (Qiagen K. K., Tokyo, Japan). The DNA was dissolved in 200 μL nuclease-free water, after which the concentration of the DNA solution was determined using BioPhotometer 6131 (Eppendorf Co., Ltd., Tokyo, Japan). […]

HBV genotype C [2] = assay: Serum HBeAg in HBV-infected PXB chimeric mouse model
Procedure: as §1, §2
(§3) Serum HBsAg and HBeAg concentrations were determined using ChemiLuminescence ImmunoAssay (CLIA) e.g., as developed by Abbott ([…]® SYSTEM). […]
(§4) Following administration of the treatment (day 0), animals were then incubated for a further 91 days. […] HBeAg levels were measured every other week through Day 70 and then weekly thereafter until the conclusion of the 91 day experiment.

HBV genotype C [3] = assay: Serum HBsAg in HBV-infected PXB chimeric mouse model; details: PXB mice, 91 day study; FIG. 8
Procedure: as §1, §2, §3, §4

HBV genotype C [4] = assay: Intracellular (liver) HBV DNA by quantitative PCR in PXB chimeric mouse model; details: entecavir or pegylated interferon alone; FIG. 12, left panel

## C=C1[C@H](CO)[C@@H](O)C[C@@H]1n1cnc2c(=O)[nH]c(N)nc21 [entecavir]
HBV genotype C [1]
  drop in serum HBV DNA levels: 2.63 log
HBV viral transcripts; monotherapy, through 13 weeks of treatment, RT-QPCR
  reduction of HBV RNA levels / HBV transcripts: ~50%
HBV viral transcripts; transcripts corresponding to shmiR-6, shmiR-15 and shmiR-12
  HBV RNA levels (liver): only modestly reduced
HBV cccDNA
  reduction of cccDNA: slightly more than a one log reduction
HBV genotype C [2]; PXB mice, 91 day study, FIG. 9
  drop in HBeAg levels: 0.37 log
HBV genotype C [2]; entecavir only
  drop in HBeAg levels: 0.37 log
HBV genotype C [3]
  drop in HBsAg levels: 0.46 log
HBV genotype C [4]
  drop in intracellular DNA levels: 2 logs
